Measured values published in patent publication US11186577B2, “Vasopressin receptor antagonists and products and methods related thereto” (BlackThorn Therapeutics, Inc., priority 2017, dated 2021).

Experiments:
[1] = molecular target: human Arginine Vasopressin Receptor 1a (AVPR1a) (Homo sapiens (Human), UniProt P37288); experiment: Vasopressin V1A receptor antagonist assay (AVP-evoked calcium, FLIPR, CHO-AVPR1a cells); type: cell-based; conditions: read-out: V1a IC50
How it was run: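 CHO cells expressing human AVPR1a, Calcium-6 dye loaded 60-90 min, preincubated with compound 15 min at 37° C., then challenged with AVP at its daily-determined EC80. FLIPR fluorescence; 10-point 1:3 series from 3 μM, duplicates.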

[2] = molecular target: human Oxytocin Receptor (hOTR) (Homo sapiens (Human), UniProt P30559); experiment: Oxytocin receptor antagonist assay (oxytocin-evoked calcium, FLIPR, CHEM-1-hOTR cells); type: cell-based; conditions: read-out: OT IC50
Sequence of human Oxytocin Receptor (hOTR) (P30559 whole entry): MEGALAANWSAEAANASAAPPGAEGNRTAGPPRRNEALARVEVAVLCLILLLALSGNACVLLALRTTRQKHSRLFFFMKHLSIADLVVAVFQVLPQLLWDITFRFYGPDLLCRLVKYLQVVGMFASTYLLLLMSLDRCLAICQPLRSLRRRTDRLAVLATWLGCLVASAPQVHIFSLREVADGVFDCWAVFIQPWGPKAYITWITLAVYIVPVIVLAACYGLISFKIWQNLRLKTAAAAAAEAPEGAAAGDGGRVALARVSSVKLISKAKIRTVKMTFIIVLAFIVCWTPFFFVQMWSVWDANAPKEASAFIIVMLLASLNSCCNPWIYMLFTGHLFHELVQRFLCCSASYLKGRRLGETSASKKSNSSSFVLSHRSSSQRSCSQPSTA
How it was run: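 Antagonist mode in CHEM-1-hOTR cells loaded with Calcium-6 dye; compounds (10-point, 1:3 series) preincubated 15 min at 37 °C, then oxytocin added at daily-determined EC80 in HBSS/20 mM HEPES with 0.1% BSA. Fluorescence (ex 470-495, em 515-575 nm) followed 3 min on FLIPR^TETRA; concentration-dependent reduction of oxytocin response measured.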

Sequence of human Arginine Vasopressin Receptor 1a (AVPR1a) (P37288 whole entry): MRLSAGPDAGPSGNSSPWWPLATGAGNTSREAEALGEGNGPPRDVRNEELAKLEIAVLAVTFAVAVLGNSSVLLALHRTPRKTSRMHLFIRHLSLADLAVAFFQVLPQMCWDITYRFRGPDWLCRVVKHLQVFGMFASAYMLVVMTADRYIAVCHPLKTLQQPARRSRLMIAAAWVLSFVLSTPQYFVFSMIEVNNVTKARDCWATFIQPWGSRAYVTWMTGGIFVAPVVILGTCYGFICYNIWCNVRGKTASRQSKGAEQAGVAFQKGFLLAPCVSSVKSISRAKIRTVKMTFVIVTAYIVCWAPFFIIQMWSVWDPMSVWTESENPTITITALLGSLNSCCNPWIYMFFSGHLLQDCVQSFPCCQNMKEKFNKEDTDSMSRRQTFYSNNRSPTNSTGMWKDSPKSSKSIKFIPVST

Structure (SMILES)	IC50 [1] [nM]	IC50 [2] [nM]
COC(=O)N1Cc2cc(Cl)ccc2-n2c(C3CC4(C3)CN(c3ncccn3)C4)nnc2C1C (stereo not drawn) [compound 166]	< 100	> 1000
CC1c2nnc(C3CC4(C3)CN(c3ncccn3)C4)n2-c2ccc(Cl)cc2CN1C(=O)OC(CF)CF (single isomer, unassigned) [Cpd 202A]	< 100	> 1000
CC(C)N1Cc2cc(Cl)ccc2-n2c(nnc2C2CC3(C2)CN(c2ccc(F)cn2)C3)C1 [compound 50]	< 100	> 1000
CCN1Cc2cc(Cl)ccc2-n2c(nnc2C2CC3(C2)CN(c2ccccn2)C3)C1 [compound 45]	< 100	> 1000
O=C(OC1CC1)N1Cc2cc(Cl)ccc2-n2c(nnc2C2CC3(C2)CN(c2ccc(F)cn2)C3)C1 [compound 90]	< 100	100 to 500
CC(C)OC(=O)N1Cc2cc(Cl)ccc2-n2c(C3CC4(C3)CN(c3ccc(F)cn3)C4)nnc2C1C (single isomer, unassigned) [Cpd 163A]	< 100	100 to 500
CC1c2nnc(C3CC4(C3)CN(c3ccc(F)cn3)C4)n2-c2ccc(Cl)cc2CN1C(=O)OC(CF)CF (single isomer, unassigned) [Cpd 203A]	< 100	100 to 500
COC(=O)N1Cc2cc(Cl)ccc2-n2c(C3CC4(C3)CN(c3ncc(F)cn3)C4)nnc2C1C (single isomer, unassigned) [Cpd 170A]	< 100	> 1000
CC(C)N1Cc2cc(Cl)ccc2-n2c(nnc2C2CC3(C2)CN(c2ncccc2F)C3)C1 [compound 54]	< 100	> 1000
COC(=O)N1Cc2cc(Cl)ccc2-n2c(C3CC4(C3)CN(c3ncccc3F)C4)nnc2C1C (stereo not drawn) [compound 182]	< 100	500 to 1000
O=C(C1CC1)N1CC2(CC(c3nnc4n3-c3ccc(Cl)cc3CN(C(=O)C3(F)CC3)C4)C2)C1 [compound 136]	< 100	> 1000
CN1Cc2cc(Cl)ccc2-n2c(nnc2C2CC3(C2)CN(c2cnccn2)C3)C1 [compound 3]	< 100	> 1000
O=C(OC(CF)CF)N1Cc2cc(Cl)ccc2-n2c(nnc2C2CC3(C2)CN(c2ccc(F)cn2)C3)C1 [compound 79]	< 100	100 to 500
CN1Cc2cc(Cl)ccc2-n2c(nnc2C2CC3(C2)CN(C(=O)C2CC2)C3)C1 [compound 28]	< 100	> 1000
COC(=O)N1Cc2cc(Cl)ccc2-n2c(C3CC4(C3)CN(c3ccc(F)cn3)C4)nnc2C1C (stereo not drawn) [compound 142, methyl 8-chloro-1-(2-(5-fluoropyridin-2-yl)-2-azaspiro[3.3]heptan-6-yl)-4-methyl-4H-benzo[f][1,2,4]triazolo[4,3-a][1,4]diazepine-5(6H)-carboxylate]	< 100	500 to 1000
CC1c2nnc(C3CC4(C3)CN(c3ncc(F)cn3)C4)n2-c2ccc(Cl)cc2CN1C(=O)OC(CF)CF (stereo not drawn) [compound 194]	< 100	> 1000
CC(C)N1Cc2cc(Cl)ccc2-n2c(nnc2C2CC3(C2)CN(c2cnccn2)C3)C1 [compound 47]	< 100	> 1000
COC(=O)N1Cc2cc(Cl)ccc2-n2c(C3CC4(C3)CN(c3cnccn3)C4)nnc2C1C (single isomer, unassigned) [Cpd 165A]	< 100	500 to 1000
CC(C)N1Cc2cc(Cl)ccc2-n2c(nnc2C2CC3(C2)CN(c2ccccn2)C3)C1 [compound 48]	< 100	> 1000
CCOC(=O)N1Cc2cc(Cl)ccc2-n2c(C3CC4(C3)CN(c3ncccn3)C4)nnc2C1C (single isomer, unassigned) [Cpd 168A]	< 100	500 to 1000
CCOC(=O)N1Cc2cc(Cl)ccc2-n2c(C3CC4(C3)CN(c3ncc(F)cn3)C4)nnc2C1C (stereo not drawn) [compound 172]	< 100	> 1000
CC(C)OC(=O)N1Cc2cc(Cl)ccc2-n2c(nnc2C2CC3(C2)CN(C(=O)C2CC2)C3)C1 [compound 153]	< 100	> 1000
Fc1ccc(N2CC3(CC(c4nnc5n4-c4ccc(Cl)cc4CN(C4CCC4)C5)C3)C2)nc1 [compound 42]	< 100	500 to 1000
FC(F)CN1Cc2cc(Cl)ccc2-n2c(nnc2C2CC3(C2)CN(c2ccccn2)C3)C1 [compound 52]	< 100	500 to 1000
CC(CF)OC(=O)N1Cc2cc(Cl)ccc2-n2c(nnc2C2CC3(C2)CN(c2ccc(F)cn2)C3)C1 (stereo not drawn) [compound 78]	< 100	100 to 500
CCOC(=O)N1Cc2cc(Cl)ccc2-n2c(C3CC4(C3)CN(c3ncccn3)C4)nnc2C1C (stereo not drawn) [compound 168]	< 100	> 1000
O=C(C(F)F)N1Cc2cc(Cl)ccc2-n2c(nnc2C2CC3(C2)CN(C(=O)C2(F)CC2)C3)C1 [compound 134]	< 100	> 1000

Structure (SMILES)	IC50 [1] [nM]	IC50 [2] [nM]
CC(C)OC(=O)N1Cc2cc(Cl)ccc2-n2c(C3CC4(C3)CN(c3cnccn3)C4)nnc2C1C (stereo not drawn) [compound 164]	< 100	100 to 500
COC(=O)N1Cc2cc(Cl)ccc2-n2c(C3CC4(C3)CN(c3cnccn3)C4)nnc2C1C (stereo not drawn) [compound 165]	< 100	500 to 1000
COC(=O)N1Cc2cc(Cl)ccc2-n2c(C3CC4(C3)CN(c3ncc(F)cn3)C4)nnc2C1C (stereo not drawn) [compound 170]	< 100	> 1000
CC(=O)N1Cc2cc(Cl)ccc2-n2c(nnc2C2CC3(C2)CN(c2ccc(F)cn2)C3)C1 [compound 64]	< 100	> 1000
CN1Cc2cc(Cl)ccc2-n2c(nnc2C2CC3(C2)CN(c2ncccc2F)C3)C1 [compound 4]	< 100	> 1000
CCC(=O)N1Cc2cc(Cl)ccc2-n2c(nnc2C2CC3(C2)CN(c2ccc(F)cn2)C3)C1 [compound 72]	< 100	> 1000
CC1c2nnc(C3CC4(C3)CN(c3ccc(F)cn3)C4)n2-c2ccc(Cl)cc2CN1C(=O)C1(F)CC1 (single isomer, unassigned) [Cpd 174A]	< 100	100 to 500
CC(C)OC(=O)N1Cc2cc(Cl)ccc2-n2c(C3CC4(C3)CN(c3ncccn3)C4)nnc2C1C (stereo not drawn) [compound 167]	< 100	> 1000
CC1c2nnc(C3CC4(C3)CN(c3ncccn3)C4)n2-c2ccc(Cl)cc2CN1C(=O)C1(F)CC1 (stereo not drawn) [compound 175]	< 100	> 1000
Clc1ccc2c(c1)CN(C1CC1)Cc1nnc(C3CC4(C3)CN(c3ccccn3)C4)n1-2 [compound 56]	< 100	500 to 1000
CC1c2nnc(C3CC4(C3)CN(c3ncccn3)C4)n2-c2ccc(Cl)cc2CN1C(=O)OC1CC1 (single isomer, unassigned) [Cpd 171A]	< 100	> 1000
O=C(N1Cc2cc(Cl)ccc2-n2c(nnc2C2CC3(C2)CN(c2cnccn2)C3)C1)C1(F)CC1 [compound 81]	< 100	> 1000
COC(=O)N1Cc2cc(Cl)ccc2-n2c(C3CC4(C3)CN(c3ccc(F)cn3)C4)nnc2C1C (single isomer, unassigned) [Cpd 142B]	500 to 1000	500 to 1000
O=C(N1Cc2cc(Cl)ccc2-c2c(C3CC4(C3)CN(c3cccnn3)C4)noc2C1)C(F)(F)F [compound 105]	< 100	100 to 500
CC1c2nnc(C3CC4(C3)CN(c3cnccn3)C4)n2-c2ccc(Cl)cc2CN1C(=O)C1(F)CC1 (stereo not drawn) [compound 177]	< 100	> 1000
CC1c2nnc(C3CC4(C3)CN(c3ccc(F)cn3)C4)n2-c2ccc(Cl)cc2CN1C(=O)OC1CC1 (single isomer, unassigned) [Cpd 191A]	< 100	100 to 500
CCN1Cc2cc(Cl)ccc2-n2c(nnc2C2CC3(C2)CN(c2ccc(F)cn2)C3)C1 [compound 49]	< 100	> 1000
CN1Cc2cc(Cl)ccc2-n2c(nnc2C2CC3(C2)CN(c2ccc(F)cn2)C3)C1 [compound 1, 8-chloro-1-(2-(5-fluoropyridin-2-yl)-2-azaspiro[3.3]heptan-6-yl)-5-methyl-5,6-dihydro-4H-benzo[f][1,2,4]triazolo[4,3-a][1,4]diazepine]	< 100	> 1000
CC1c2nnc(C3CC4(C3)CN(c3ccccn3)C4)n2-c2ccc(Cl)cc2CN1C(=O)C1(F)CC1 (single isomer, unassigned) [Cpd 181A]	< 100	100 to 500
CC(C)C(=O)N1Cc2cc(Cl)ccc2-n2c(nnc2C2CC3(C2)CN(c2ccc(F)cn2)C3)C1 [compound 63]	< 100	> 1000
CN1Cc2cc(Cl)ccc2-n2c(nnc2C2CC3(C2)CN(c2cccc(F)n2)C3)C1 [compound 8]	< 100	> 1000
CC1c2nnc(C3CC4(C3)CN(c3ccc(F)cn3)C4)n2-c2ccc(Cl)cc2CN1C(=O)C(C)(C)F (single isomer, unassigned) [Cpd 178A]	< 100	100 to 500
CC1c2nnc(C3CC4(C3)CN(c3ccc(F)cn3)C4)n2-c2ccc(Cl)cc2CN1C(=O)C1(F)CC1 (stereo not drawn) [compound 174]	< 100	500 to 1000
COC(=O)N1Cc2cc(Cl)ccc2-n2c(nnc2C2CC3(C2)CN(c2ccc(F)cn2)C3)C1 [compound 61]	< 100	500 to 1000
COC(=O)N1Cc2cc(Cl)ccc2-n2c(C3CC4(C3)CN(c3ccc(F)cn3)C4)nnc2C1C (single isomer, unassigned) [142A]	< 100	> 1000
CC(C)OC(=O)N1Cc2cc(Cl)ccc2-n2c(C3CC4(C3)CN(c3ncc(F)cn3)C4)nnc2C1C (single isomer, unassigned) [Cpd 201A]	< 100	–
